# Experimental data taken from patent US10814036B2, “Drug-eluting live tissue for transplantation” (BAYLOR UNIVERSITY, priority 2016, dated 2020).
# pIC50: −log10 of the molar value. Entries after “also recorded” stand apart in the source; their conditions may differ.
# Experiments:
# TLR4 [1] = target: T1, TLR4 (Mus musculus, UniProt Q9QUK6); assay: LPS challenge of drug-eluting mouse islets, IL-6 expression (Example 15); assay type: cell-based; conditions: for protection from LPS challenge (IL-6 expression): 24 h after modification or treatment
# T1 construct: from tissue; host or cells: pancreatic islets of C57BL/6 mice
# T1 sequence (Q9QUK6 26-835): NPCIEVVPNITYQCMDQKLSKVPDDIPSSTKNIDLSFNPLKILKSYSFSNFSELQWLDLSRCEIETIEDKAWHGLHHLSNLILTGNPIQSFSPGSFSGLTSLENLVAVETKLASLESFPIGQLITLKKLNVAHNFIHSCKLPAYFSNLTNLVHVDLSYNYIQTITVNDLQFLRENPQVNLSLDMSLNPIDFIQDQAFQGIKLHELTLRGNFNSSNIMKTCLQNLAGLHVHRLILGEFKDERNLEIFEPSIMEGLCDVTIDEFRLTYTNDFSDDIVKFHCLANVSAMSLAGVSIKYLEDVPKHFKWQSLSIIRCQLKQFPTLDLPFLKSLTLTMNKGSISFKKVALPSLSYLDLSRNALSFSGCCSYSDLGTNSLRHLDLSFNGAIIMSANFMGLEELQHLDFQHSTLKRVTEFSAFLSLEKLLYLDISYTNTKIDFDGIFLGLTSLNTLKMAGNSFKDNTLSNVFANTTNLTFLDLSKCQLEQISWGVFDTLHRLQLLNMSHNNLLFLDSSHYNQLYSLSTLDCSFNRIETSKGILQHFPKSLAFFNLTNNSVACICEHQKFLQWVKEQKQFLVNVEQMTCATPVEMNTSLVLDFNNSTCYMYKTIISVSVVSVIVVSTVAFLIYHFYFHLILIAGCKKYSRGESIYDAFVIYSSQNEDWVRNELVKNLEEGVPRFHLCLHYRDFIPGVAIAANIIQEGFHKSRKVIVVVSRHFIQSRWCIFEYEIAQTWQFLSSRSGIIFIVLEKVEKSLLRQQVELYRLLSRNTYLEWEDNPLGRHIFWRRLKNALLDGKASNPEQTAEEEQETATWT
# Protocol: (§1) In order to study the function and efficacy of the cleavable prodrug, in vitro experiments were performed challenging mouse islets with LPS at different times post-modification. […] HEK Blue hTLR4 reporter cells were treated with either free TAK-242 or the TAK-PhSO2-Linker prodrug, followed by LPS challenge.
# (§2) Data represented as means±SEM (n=3 per group). Statistical significance determined by two-tailed unpaired t test. n.s. means not significant.
# hTLR4 = target: T2, hTLR4 (Homo sapiens, UniProt O00206); assay: HEK Blue hTLR4 reporter cells, TLR4-mediated NFkB upregulation, colorimetric assay; assay type: cell-based; conditions: brief treatment, unconjugated compound
# T2 construct: expressed in transfected cells; host or cells: HEK Blue hTLR4 reporter cells
# T2 sequence (O00206 24-839): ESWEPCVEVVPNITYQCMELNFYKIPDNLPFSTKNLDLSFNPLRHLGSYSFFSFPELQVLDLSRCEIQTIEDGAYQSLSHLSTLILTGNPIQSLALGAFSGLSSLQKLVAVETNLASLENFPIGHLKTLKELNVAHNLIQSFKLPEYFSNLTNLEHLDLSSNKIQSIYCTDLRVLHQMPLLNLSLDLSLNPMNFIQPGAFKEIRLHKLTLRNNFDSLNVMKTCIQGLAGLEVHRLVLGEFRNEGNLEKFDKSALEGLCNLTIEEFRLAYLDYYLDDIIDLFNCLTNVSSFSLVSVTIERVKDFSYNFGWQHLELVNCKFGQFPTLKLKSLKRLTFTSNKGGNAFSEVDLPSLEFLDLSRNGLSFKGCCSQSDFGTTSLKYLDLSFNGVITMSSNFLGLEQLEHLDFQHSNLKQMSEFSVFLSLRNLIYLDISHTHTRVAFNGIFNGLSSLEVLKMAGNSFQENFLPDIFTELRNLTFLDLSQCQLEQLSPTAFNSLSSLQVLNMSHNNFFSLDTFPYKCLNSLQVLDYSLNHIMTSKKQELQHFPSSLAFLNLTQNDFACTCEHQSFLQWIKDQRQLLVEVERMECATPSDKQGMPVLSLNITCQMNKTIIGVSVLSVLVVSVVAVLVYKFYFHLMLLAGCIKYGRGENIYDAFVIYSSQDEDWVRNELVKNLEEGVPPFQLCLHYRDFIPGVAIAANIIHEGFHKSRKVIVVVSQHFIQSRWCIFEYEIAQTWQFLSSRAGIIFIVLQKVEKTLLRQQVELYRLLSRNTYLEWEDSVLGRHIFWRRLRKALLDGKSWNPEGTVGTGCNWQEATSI
# Protocol: as §1, §2
# [2] = test system: streptozotocin-induced diabetes; assay: Syngeneic islet transplant in streptozotocin-induced diabetic mice; assay type: in vivo, C57BL/6 mice
# Protocol: With the promising in vitro results described above, islet transplantation experiments were performed in a syngeneic wild-type C57BL/6 streptozotocin-induced diabetes model. Recipient male C57BL/6 mice 6-7 weeks old were made diabetic by a single intraperitoneal injection of streptozotocin (200 mg/kg; Sigma-Aldrich). Diabetic mice are defined as having a nonfasting blood glucose >400 mg/dL for 2 consecutive days. Prior to transplantation, islets were untreated, pretreated with 3 μM TAK-242, or modified with TAK-PhSO2-Linker as described above. Diabetic C57BL/6 mice were anesthetized under isofluorane, and a field between the rib cage and pelvis on the left side was disinfected by 1% providone iodine scrub and 70% ethanol. A minimal incision (˜8 to 10 mm) into the peritoneum was made to expose the kidney, and a small cut (˜2 mm) was made in the kidney capsule using a 30G needle. Then a flame-blunted glass pipette tip was inserted into the kidney capsule through the cut to create a pocket between the renal cortex and capsule. Islets were then injected into the pocket via PE-50 polyethylene tubing (Becton Dickinson) connected to a 1 mL syringe filled with RPMI 1640 driven by an NE-300 syringe pump (New Era Pump Systems). At the completion of islet infusion, the incision was closed with 4-0 violet monofilament (Ethicon) via continuous nonlocking sutures. After closing, mice received a 0.1 mg/kg bolus of buprenorphine subcutaneously near the incision. Engraftment success was measured by nonfasting blood glucose measurements 5 times a week over a 4-week period with a Breeze 2 Glucose Monitor (Bayer). Mice were considered cured on the first day of two consecutive glucose measurements below 200 mg/dL (˜11 mM).
# Diabetic mice were separated into untreated (n=4), TAK-242 (n=6), and TAK-PhO2-Linker (n=6) groups. A marginal dose of ˜100 islets was determined by titrating doses of TAK-242-treated islets. […] Diabetic C57BL/6 mice were transplanted with (FIG. 33A) 200, (FIG. 33B) 150, or (FIG. 33C) 100 TAK-242-treated islets. Blood glucose was monitored for 4 weeks before IPGTT on day 30 and at nephrectomy on day 35. […] This marginal dose was transplanted into the kidney subcapsular space in each group, and blood glucose was monitored for 4 weeks.
# MIN6 cells = assay: MTT viability assay in MIN6 beta cells; assay type: cell-based; conditions: days 1, 3 and 7, effective concentrations
# Protocol: MIN6 cells were seeded in a 96-well plate at 15,000 cells per well in RPMI. After overnight culture, culture media was replaced with media containing the indicated TAK-242 concentrations. The control (0 nM TAK-242) contained 0.1% DMSO. Media was changed on day 3. On days 1, 3, and 7, an MTT viability assay was performed. Data are represented as means±SEM. P>0.05 for all samples (one-way ANOVA with Tukey's multiple-comparisons test).
# TLR4 [3] = target: T1, TLR4; assay: Extended protection of modified islets, IL-6 mRNA after LPS challenge (Example 5); assay type: cell-based, murine; conditions: LPS 2 ug/mL 4 hrs, 24 hrs after treatment or islet modification; unprotected islets ~59-fold
# Protocol: Compared to free TAK-242 pre-treatment, the TAK-Linker compound covalently attached to the islet surface provides extended protection.
# First, islets were modified with either TAK-Linker or TAK-HexOH (1 hr NHS-DBCO followed by 1 hr TAK compounds), or treated with free TAK-242 (3 uM, 30 min @37° C.). All islets were rinsed with culture media (RPMI 1640, 10% FBS) prior to culturing. After overnight culture, the treated groups were challenged with LPS (2 ug/mL, 4 hrs @ 37° C.), a TLR4-specific agonist, and compared to unprotected islets (LPS) and unprotected/untreated control islets.
# Total RNA was isolated from the islets for mRNA analysis. The gene expression of cytokine IL-6 was used for evaluation due to its key role in acute inflammation.
# TLR4 [4] = target: T1, TLR4; assay: rHMGB1 challenge of mouse islets, gene expression analysis; assay type: cell-based, C57BL/6 mice; conditions: 1 μg/mL rHMGB1, 4 h, TAK-242 pretreatment
# Protocol: Similar results were observed when islets were challenged with high-mobility group box 1 (HMGB1; FIG. 26), an endogenous damage-associated molecular pattern (DAMP) known to elicit acute inflammation through TLR4. […] Islets from C57BL/6 mice were challenged with 1 μg/mL rHMGB1 with or without TAK-242 pretreatment. After 4 h, total RNA was isolated from the islets for gene expression analysis. The proinflammatory genes (A) CXCL10 and (B) CCL2 were examined in the samples. Data represented as means±SEM. *P<0.05 (n=3 for all samples, unpaired two-tailed t test).
# TLR4 [5] = target: T1, TLR4; assay: LPS challenge of mouse islets, RT-PCR gene expression and multiplex cytokine analysis; assay type: cell-based, C57BL/6 mice
# Protocol: To initially investigate whether free TAK-242 can protect islets from TLR4-mediated inflammation, inflammatory responses in islets from C57BL/6 mice challenged with the canonical TLR4 ligand lipopolysaccharide (LPS) were examined. As discussed in detail below, islets were treated with TAK-242 (3 μM for 30 min) before a 24-h challenge with a high dose of LPS (2 μg/mL). After 24 h, culture media was analyzed by multiplex assay, and mRNA was isolated from islet cells for analysis by real-time polymerase chain reaction (RT-PCR).
# Materials and Methods. After overnight culture, islets were washed in Dulbecco's PBS (Caisson Labs, Smithfield, Utah, USA) before treatment with TAK-242 (3 μM, 30 min; MedchemExpress) and 2 μg/mL LPS-EB (Ultrapure from Escherichia coli O111:B4; Invivogen) for 24 h at 37° C. and 5% CO2. Islets were washed once with cold Dulbecco's PBS immediately after treatment, and total RNA was isolated from samples using TRIzol […] and converted to cDNA using a high capacity cDNA reverse transcription kit (Applied Biosystems) following manufacturer protocols. Quantitative expression of genes of interest was determined using RT2 SYBR Green qPCR master mix (Qiagen) on a Bio-Rad CFX Connect (Bio-Rad) with the following program: 95° C., 10 min and 40 cycles of 95° C., 15 sec, 60° C., 1 min. Primers for quantitative real-time PCR analysis were purchased from commercially available stock from Integrated DNA Technologies (Coralville). Relative gene expression was calculated using the 2-ΔΔCT method normalized to 18S mRNA. Cytokines from assay culture media were analyzed using Milliplex MCYTOMAG-70K Assay (EMD Millipore). Samples were prepared following manufacturer guidelines. Analysis was performed after overnight incubation at 4° C. on a Luminex 200 (Luminex). Samples were assayed in triplicate and analyzed in triplicate for cDNA or in duplicate for multiplex assay.
# TLR4 [6] = conditions: human and murine models; depending on cell type; read-out: TLR4 inhibition IC50; cited from earlier work
# [7] = Linker prodrug stability and release kinetics in PBS by LC-MS; assay type: physicochemical; conditions: phosphate-buffered saline; PBS pH 7.4, 37° C.; read-out: half-life of TAK-PhSO2-Linker (release of free TAK-242) (converted)
# Protocol: The stability of the linker prodrug was explored in this example. The TAK-PhSO2-Linker compound was incubated in phosphate-buffered saline (PBS; pH 7.4) at 37° C., and the solution sampled over the course of several days. Liquid chromatography-mass spectrometry (LC-MS) was used to identify and quantitate the compounds released from this prodrug.
SMILES,"protection against LPS-mediated inflammation (IL-6) (TLR4 [1]; islet surfaces functionalized only, no prodrug)",inhibition of TLR4-mediated NFkB upregulation after LPS challenge (hTLR4),"cure time and glycemic control, islet dose titration ([2]; 100 TAK-242-treated islets)","mean nonfasting blood glucose ([2]; 100 islets, 4 weeks)","mean time to cure ([2]; 100 islets, cured = two consecutive glucose measurements below 200 mg/dL)","cure time and glycemic control, islet dose titration ([2]; 200 and 150 TAK-242-treated islets)",toxicity to beta cells (MTT viability) (MIN6 cells),increase in IL-6 expression (TLR4 [3]),CXCL10 and CCL2 gene expression after rHMGB1 challenge (TLR4 [4]),"CXCL10 gene expression (TLR4 [5]; 3 μM TAK-242 pretreatment 30 min, 24 h after 2 μg/mL LPS, LPS alone 26-fold)","CCL2 gene expression (TLR4 [5]; 3 μM TAK-242 pretreatment 30 min, 24 h after 2 μg/mL LPS, LPS alone 55-fold)","proinflammatory cytokines IL-6, CXCL1, CXCL10, CCL2, TNF-α in culture media (TLR4 [5]; TAK-242 pretreatment, 24 h after LPS challenge, versus LPS alone)",pIC50 (TLR4 [6]),protection from LPS challenge (IL-6 expression) (TLR4 [1]),inhibition of LPS-mediated inflammation (TLR4 [1]; immediately after treatment),half-life [7]
"O=C(CCC(=O)N1Cc2ccccc2C#Cc2ccccc21)NCCOCCOCCOCCOCCC(=O)ON1C(=O)CCC1=O [NHS-PEG4-DBCO, dibenzocyclooctyne-PEG4-N-hydroxysuccinimidyl ester]",no protection against LPS-mediated inflammation,,,,,,,,,,,,,,,
"CCOC(=O)C1=CCCCC1S(=O)(=O)Nc1ccc(F)cc1Cl (stereo not shown) [TAK-242, ethyl 6-(N-(2-chloro-4-fluorophenyl)sulfamoyl)cyclohex-1-ene-1-carboxylate]",,completely blocked LPS; also recorded: completely inhibited the upregulation of NFkB,delayed cure time and exhibited significant average glycemic lability,demonstrated some control,21.0 ± 4.9 days,quick cure times and good glycemic control,negligible toxicity,~32 fold,protection of mouse islets against rHMGB1-mediated TLR4 inflammation,0.91 fold,1.01 fold,significantly lower levels of these cytokines,7.48 to 9.00,beings to lose its effectiveness by 24 h; also recorded: provided protection from TLR4-mediated inflammation 24 hours post treatment,completely inhibit LPS-mediated inflammation,
CCOC(=O)C1=CCCCC1S(=O)(=O)N(C(=O)OC(CCCCCN=[N+]=[N-])CS(=O)(=O)c1ccccc1)c1ccc(F)cc1Cl (stereo not shown) [TAK-PhSO2-Linker],,negligible TLR4-antagonist activity; also recorded: provided no protection; also recorded: no significant protection,,,,,,~3 fold,,,,,,significantly protected from LPS challenge; also recorded: significantly better than that of free TAK-242 alone; also recorded: significantly protected against LPS-mediated inflammation,,~25 h
